Source: US5567722A, “Cyanoguanidines as K-channel blockers” (The Upjohn Company, priority 1995, dated 1996)
Where two headings read alike, the source gives them in different places.

Columns and labels:
[1] = tested on: K+ channel of rabbit mesenteric artery (RMA); assay: K+ channel antagonism: inhibition of pinacidil-induced relaxation of norepinephrine-contracted rabbit mesenteric artery (RMA) rings; format: cell-based
Protocol: The results for potassium channel blocking were obtained by using isolated rabbit mesenteric artery (RMA) procedures. Norepinephrine (5 μM) was used to contract the RMA rings twice, with an hour separating the two contractions. During this hour the tissues equilibrated in physiological salt solution at a resting tension of 1 gram. Upon the plateau of the second contraction 1 μM pinacidil was added to all tissues and the resulting relaxation time course was studied for thirty minutes. […] By studying the ability of the test compounds to inhibit this pinacidil-induced relaxation, the degree of potassium antagonism could be determined. The compounds were applied to the tissues for one hour between the two contractions and the pinacidil-induced relaxation was studied in the continuing presence of the compounds. Thus, the total time of pretreatment with the test compound was 75 minutes before the addition of pinacidil. […]
Data for K^+ channel antagonist activity on rabbit mesenteric artery (RMA) and natriuretic efficacy after […] (IP) administration to rats are collected in Tables III and IV. It was known, for example, that a compound where both methyl groups on the benzylic carbon of Example 9 had been removed was a weak PCO rather than a K^+ channel antagonist. Similarly a compound in which the phenyl was attached directly to the guanidine nitrogen was also a K^+ channel agonist.
^a This is a measure of a compound's ability to inhibit the relaxatio
of norepinephrine (5 μM) contracted rabbit mesenteric artery rings by
pinacidil (1 μM). It is expressed as percent inhibition (mean ± sem
at an inhibitor concentration of 5 μM. Compounds with 65% or g greater
inhibition at 5 μM are considered to be active, with 2065\% inhibition

[2] = Diuretic screen: 5 h net natriuretic efficacy (urinary Na+ excretion) in rats; format: in vivo, female Harlan Sprague-Dawley rats
K+ channel = conditions: 1 μM; norepinephrine-contracted RMA rings; cited from earlier work
[3] = Oryctolagus cuniculus, 0.25 h, Table III, inhibition of relaxation by pinacidil 1 μM at 15 min, mean ± sem (number of rings), >=65% considered active, <20% inactive, read-out: RMA K+ Channel Antagonism % I at 5 μM
[4] = Oryctolagus cuniculus, Table III footnote, read-out: RMA K+ channel antagonism, Percent inhibition at 1 μM
[5] = Oryctolagus cuniculus, Table III footnote, read-out: RMA K+ channel antagonism, Percent inhibition at 0.5 μM
[6] = Oryctolagus cuniculus, Table IV, lowest concentration giving >20% inhibition or lowest tested, read-out: RMA K+ Channel Antagonism % I (conc. μM)

CC(NC(=NC#N)Nc1cccnc1)c1ccccc1 (racemic) [Compound 7, N"-Cyano-N-(3-pyridyl)-N'-(1-phenyl)ethylguanidine]
inhibition at 5 µM [1, 3]: 65.3 ± 10.2%

C[C@@H](NC(=NC#N)Nc1cccnc1)c1ccccc1 [Compound 1, (R)-N"-Cyano-N-(3-pyridyl)-N'-(1-phenyl)ethylguanidine]
inhibition at 5 µM [1, 3]: 86.3 ± 5% | inhibition at 1 µM [1, 4]: 17.1% | inhibition at 2.5 µM ([1]; Oryctolagus cuniculus, Table III footnote, 2.5 μM, read-out: RMA K+ channel antagonism, Percent inhibition at 2.5 μM): 88.9 ± 11.2%

CCC(NC(=NC#N)Nc1cccnc1)c1ccccc1 (centres unmarked) [Compound 2, N"-Cyano-N-(3-pyridyl)-N'-(1-phenyl)propylguanidine]
inhibition at 5 µM [1, 3]: 78.8 ± 3.9% | inhibition at 1 µM [1, 4]: 25.6 ± 17.2%

N#CN=C(Nc1cccnc1)NC1(c2ccccc2)CC=CC1 [Compound 3, N"-Cyano-N'-(1-phenylcyclopent-3-enyl)-N-(3-pyridyl)guanidine]
inhibition at 5 µM [1, 3]: 91%

N#CN=C(Nc1cccnc1)N[C@@H](CO)c1ccccc1 [Compound 4, (R)-N"-Cyano-N'-(2-hydroxy-1-phenylethyl)-N-(3-pyridyl)guanidine]
inhibition at 5 µM [1, 3]: 2.6 ± 1.7%

C[C@H](NC(=NC#N)Nc1cccnc1)c1ccccc1 [Compound 8]
inhibition at 5 µM [1, 3]: 22.1 ± 21.2%

CC(C)(NC(=NC#N)Nc1cccnc1)c1ccccc1 [Compound 9]
inhibition at 5 µM [1, 3]: 89.5 ± 3.6%

N#CN=C(Nc1cccnc1)NC1(c2ccccc2)CCCCC1 [Compound 10]
inhibition at 5 µM [1, 3]: 85.5 ± 2.2%

N#CN=C(Nc1cccnc1)NC1(c2ccccc2)CCCC1 [Compound 11]
inhibition at 5 µM [1, 3]: 90.4 ± 2.3% | inhibition at 0.5 µM [1, 5]: 78.8 ± 4.4%

CC(C)C(NC(=NC#N)Nc1cccnc1)c1ccccc1 (centres unmarked) [Compound 12]
inhibition at 5 µM [1, 3]: 85.5 ± 0.6% | inhibition at 0.5 µM [1, 5]: 43.6% | inhibition at 1 µM [1, 4]: 78.2 ± 1.9%

CC(C)(C)C(NC(=NC#N)Nc1cccnc1)c1ccccc1 (centres unmarked) [Compound 13]
inhibition at 5 µM [1, 3]: 83.2 ± 12% | inhibition at 0.5 µM [1, 5]: 82 ± 1.8%

Cc1ccccc1C(C)NC(=NC#N)Nc1cccnc1 (centres unmarked) [Compound 14]
inhibition at 5 µM [1, 3]: 58.7 ± 8.3%

Cc1cccc(C(C)NC(=NC#N)Nc2cccnc2)c1 (centres unmarked) [Compound 15]
inhibition at 5 µM [1, 3]: 82 ± 3.9%

COCC(NC(=NC#N)Nc1cccnc1)c1ccccc1 (centres unmarked) [Compound 16]
inhibition at 5 µM [1, 3]: 51.1 ± 11.6%

N#CN=C(Nc1cccnc1)NC(c1ccccc1)C1CC1 (centres unmarked) [Compound 17, N"-Cyano-N-(3-pyridyl)-N'-phenylcyclopropylmethylguanidine]
inhibition at 5 µM [1, 3]: 93.3 ± 2.2%

N#CN=C(Nc1cccnc1)NC(c1ccccc1)C1CCCC1 (centres unmarked) [Compound 18]
inhibition at 5 µM [1, 3]: 88.1 ± 2%

N#CN=C(Nc1cccnc1)NC(c1ccccc1)C1CCC1 (centres unmarked) [Compound 19]
inhibition at 5 µM [1, 3]: 96 ± 2.1%

CC[C@H](NC(=NC#N)Nc1cccnc1)c1ccccc1 [Compound 20]
inhibition at 5 µM [1, 3]: 13.9 ± 7.2%

CC(NC(=NC#N)Nc1cccnc1)c1cccc(C(F)(F)F)c1 (centres unmarked) [Compound 21]
inhibition at 5 µM [1, 3]: 85.3 ± 3.2%

CC[C@@H](NC(=NC#N)Nc1cccnc1)c1ccccc1 [Compound 22, (R) N"-Cyano-N-(3-pyridyl)-N'-(1-phenylpropyl)guanidine]
inhibition at 5 µM [1, 3]: 89 ± 3.2% | inhibition at 0.1 µM ([1]; Oryctolagus cuniculus, Table III footnote, 0.1 μM, read-out: RMA K+ channel antagonism, Percent inhibition at 0.1 μM): 5 ± 2% | inhibition at 0.25 µM ([1]; Oryctolagus cuniculus, Table III footnote, 0.25 μM, read-out: RMA K+ channel antagonism, Percent inhibition at 0.25 μM): 52 ± 1% | inhibition at 0.5 µM [1, 5]: 81.5 ± 5.9%

CC(NC(=NC#N)Nc1cccnc1)c1ccc(Cl)c(Cl)c1 (centres unmarked) [Compound 23]
inhibition at 5 µM [1, 3]: 90.8 ± 2.8%

CC(NC(=NC#N)Nc1cccnc1)c1cc(Cl)ccc1Cl (centres unmarked) [Compound 24]
inhibition at 5 µM [1, 3]: 86.9 ± 4%

CC(NC(=NC#N)Nc1cccnc1)c1cccc(Cl)c1 (centres unmarked) [Compound 25]
inhibition at 5 µM [1, 3]: 89.9 ± 0.1%

CC(NC(=NC#N)Nc1cccnc1)c1ccccc1Cl (centres unmarked) [Compound 26]
inhibition at 5 µM [1, 3]: 74.7 ± 2.7%

N#CN=C(Nc1cccnc1)N[C@H](CO)c1ccccc1 [Compound 27]
inhibition at 5 µM [1, 3]: 92.5 ± 3.1%

CCCC(NC(=NC#N)Nc1cccnc1)c1ccccc1 (centres unmarked) [Compound 28]
inhibition at 5 µM [1, 3]: 85.2 ± 4.8%

CNc1ccc(NC(=NC#N)NC(C)c2ccccc2)cn1 (centres unmarked) [Compound 29]
inhibition at 5 µM [1, 6]: 63.4%

CCC(NC(=NC#N)Nc1ccc(NC(C)=O)nc1)c1ccccc1 (centres unmarked) [Compound 30]
inhibition at 5 µM [1, 6]: 0%

N#CN=C(Nc1cccnc1)NC1(c2cccc(Br)c2)CCC1 [Compound 31]
inhibition at 0.05 µM [1, 6]: 50%

N#CN=C(Nc1cccnc1)NC1(c2cccc(Cl)c2F)CCC1 [Compound 32]
inhibition at 0.05 µM [1, 6]: 66%

CCN(CC)c1ccc(NC(=NC#N)N[C@H](C)c2ccccc2)cn1 [Compound 33]
inhibition at 5 µM [1, 6]: 10.8%

C[C@@H](NC(=NC#N)Nc1ccc(Cl)nc1)c1ccccc1 [Compound 34]
inhibition at 1 µM [1, 6]: 49.5%

C[C@@H](NC(=NC#N)Nc1ccc(N(C)C)nc1)c1ccccc1 [Compound 35]
inhibition at 5 µM [1, 6]: 10.6%

CC(NC(=NC#N)Nc1ccc(N)nc1)c1ccccc1 (centres unmarked) [Compound 36]
RMA K+ Channel Antagonism % I (conc. μM) ([1]; Table IV, concentration not printed (empty parentheses)): 66.5%

CN(C)c1ccc(NC(=NC#N)N[C@H](CO)c2ccccc2)cn1 [Compound 37]
inhibition at 5 µM [1, 6]: 6.6%

CCC(NC(=NC#N)Nc1cccnc1)c1cccc(F)c1 (centres unmarked) [Compound 38]
inhibition at 0.5 µM [1, 6]: 68.6%

CCC(NC(=NC#N)Nc1cccnc1)c1cccc(Br)c1 (centres unmarked) [Compound 39]
inhibition at 0.5 µM [1, 6]: 87.2%

CC(NC(=NC#N)Nc1cccnc1)c1cc(F)cc(F)c1 (centres unmarked) [Compound 40]
inhibition at 0.5 µM [1, 6]: 55.5%

CCC(NC(=NC#N)Nc1cccnc1)c1cccc(I)c1 (centres unmarked) [Compound 41]
inhibition at 5 µM [1, 6]: 90.1%

N#CN=C(Nc1cccnc1)NC1(c2cccc(F)c2)CCC1 [Compound 42]
inhibition at 0.05 µM [1, 6]: 50%

CCC(NC(=NC#N)Nc1cccnc1)c1ccccc1F (centres unmarked) [Compound 43]
inhibition at 0.05 µM [1, 6]: 30%

CC[C@@H](NC(=NC#N)Nc1ccc(N)nc1)c1ccccc1 [Compound 44, (R)-N-(6-Amino-3-pyridyl)-N"-cyano-N'-(1-phenylpropyl)guanidine]
inhibition at 5 µM [1, 6]: 60%

N#CN=C(Nc1cccnc1)NC1(c2cccc(Cl)c2)CCC1 [Compound 45, N'-[1-(3-Chlorophenyl)cyclobutyl]-N"-cyano-N-(3-pyridyl)guanidine]
inhibition at 0.05 µM [1, 6]: 91%

N#CN=C(Nc1ccc(N)nc1)NC1(c2ccccc2)CCC1 [Compound 46, N"-Cyano-N-(6-amino-3-pyridyl)-N'-(1-phenylcyclobutyl)guanidine]
inhibition at 0.5 µM [1, 6]: 45%

N#CN=C(Nc1ccc(N)nc1)NC1(c2cccc(F)c2)CCC1 [Compound 47]
inhibition at 0.05 µM [1, 6]: 79%

N#CN=C(Nc1cccnc1)NC1(c2cccc(F)c2F)CCC1 [Compound 48]
inhibition at 0.05 µM [1, 6]: 45%

CC(NC(=NC#N)Nc1cccnc1)c1cccc(F)c1 (centres unmarked) [Compound 50]
inhibition at 5 µM [1, 6]: 94.6%

N#CN=C(Nc1cccnc1)NC1(c2ccccc2)CCC1 [Compound 51, N"-Cyano-N-(3-pyridyl)-N'-(1-phenylcyclobutyl)guanidine]
inhibition at 0.5 µM [1, 6]: 82.9%

CCC(NC(=NC#N)Nc1cccnc1)c1cccc(Cl)c1 (centres unmarked) [Compound 52]
inhibition at 0.5 µM [1, 6]: 94%

CC[C@@H](NC(=NC#N)Nc1ccc(N(C)C)nc1)c1ccccc1 [Compound 53, (R)-N"-Cyano-N'-(1-phenylpropyl)-N-[6-(dimethylamino)-3-pyridyl]guanidine]
inhibition at 5 µM [1, 6]: 4.1%

CCC(NC(=NC#N)Nc1ccc[n+]([O-])c1)c1ccccc1 (centres unmarked) [Compound 54, N"-Cyano-N'-(1-phenylpropyl)-N-(3-pyridyl)guanidine, pyridine N-oxide]
inhibition at 5 µM [1, 6]: 15.4%

C[C@@H](NC(=NC#N)Nc1ccc[n+]([O-])c1)c1ccccc1 [Compound 55, (R)-N"-Cyano-N'-(1-phenylethyl)-N-(3-pyridyl)guanidine, pyridine N-oxide]
inhibition at 5 µM [1, 6]: 16.3%

CCNc1ccc(NC(=NC#N)N[C@H](C)c2ccccc2)cn1 [Compound 56]
inhibition at 5 µM [1, 6]: 19.1%

COCCCNc1ccc(NC(=NC#N)N[C@H](C)c2ccccc2)cn1 [Compound 57]
inhibition at 5 µM [1, 6]: 7.8%

CC(NC(=NC#N)Nc1cccnc1)c1cccc(F)c1F (centres unmarked) [Compound 58]
inhibition at 0.5 µM [1, 6]: 92.1%

CC(C)Nc1ccc(NC(=NC#N)N[C@H](C)c2ccccc2)cn1 [Compound 59]
inhibition at 5 µM [1, 6]: 8.5%

N#CN=C(Nc1cccnc1)NC1(c2ccccc2)CC1 [Compound 63]
inhibition at 5 µM [1, 6]: 86%

CC(N/C(=N\C#N)Nc1ccncc1)C(C)(C)C (centres unmarked) [Pinacidil]
diuretic response (in words) ([2]; 5 mg/kg oral dosage): Antidiuresis | 5 h Net Natriuretic Efficacy ([2]; Table III, 5 mg/kg oral dosage (footnote j)): -60 μEq Na+/mg/kg | K+ channel dependent vasodilation (in words) (K+ channel): maximal K^+ channel dependent vasodilation | inhibition at 5 µM [1, 3]: 0%
